Data reported in PubChem BioAssay AID192 (DTP/NCI, 2004).
“And” between values parts separate entries of the source, which are not always exact repeats. Equal entries are not always repeated. Toxic doses and inconclusive results are not listed. How the source made its calls: active means survival T/C of 150% or more; inactive means T/C below 125% in these data.

Tested on: BDF1 mice, B16 melanoma ip, median survival T/C
Test: NCI In Vivo Anticancer Drug Screen. Data for tumor model B16 Melanoma (intraperitoneal) in B6D2F1 (BDF1) mice
Details: endpoint: median survival time, higher = longer survival
Outline: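 Compounds were tested in mice carrying transplantable tumors. Survival or tumor size was recorded, and each value is the treated-group measurement (T) divided by that of the vehicle-treated control group (C).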

[1] = dose: 100.0 mg/kg/injection, schedule: Q04DX003 (ip), vehicle: Klucel (hydroxypropylcellulose) (HPC)
[2] = dose: 200.0 mg/kg/injection, schedule: Q04DX003 (ip), vehicle: Klucel (hydroxypropylcellulose) (HPC)
[3] = dose: 400.0 mg/kg/injection, schedule: Q04DX003 (ip), vehicle: Klucel (hydroxypropylcellulose) (HPC)
[4] = dose: 6.25 mg/kg/injection, schedule: Q01DX009 (ip), vehicle: saline
[5] = dose: 12.5 mg/kg/injection, schedule: Q01DX009 (ip), vehicle: saline
[6] = dose: 25.0 mg/kg/injection, schedule: Q01DX009 (ip), vehicle: saline
[7] = dose: 50.0 mg/kg/injection, schedule: Q01DX009 (ip), vehicle: saline
[8] = dose: 50.0 mg/kg/injection, schedule: Q01DX009 (ip), vehicle: Klucel (hydroxypropylcellulose) (HPC)

Measured: T/C

C=C(C)C1C2CC3(C)C4(CO4)C4OC4C3(O)C1C(=O)O2 (stereo not drawn)
inactive: dose: 0.07 mg/kg/injection, schedule: Q01DX009 (ip), vehicle: Klucel (hydroxypropylcellulose) (HPC) 102 % of control | dose: 0.15 mg/kg/injection, schedule: Q01DX009 (ip), vehicle: Klucel (hydroxypropylcellulose) (HPC) 104 % of control | dose: 0.3 mg/kg/injection, schedule: Q01DX009 (ip), vehicle: Klucel (hydroxypropylcellulose) (HPC) 106 % of control | dose: 0.6 mg/kg/injection, schedule: Q01DX009 (ip), vehicle: Klucel (hydroxypropylcellulose) (HPC) 98 % of control | dose: 1.2 mg/kg/injection, schedule: Q01DX009 (ip), vehicle: Klucel (hydroxypropylcellulose) (HPC) 101 % of control

C=C(Cl)CC1(C(=O)OCC)CCN(S(=O)(=O)c2ccc(C)cc2)c2ccccc2C1=O (stereo not drawn)
inactive: [1] 97 % of control | [2] 107 % of control | [3] 93 % of control

Cn1c(=O)[nH]c2nncnc2c1=O
inactive: dose: 0.37 mg/kg/injection, schedule: Q01DX009 (ip), vehicle: water 99 % of control | dose: 0.75 mg/kg/injection, schedule: Q01DX009 (ip), vehicle: water 118 % of control | dose: 1.5 mg/kg/injection, schedule: Q01DX009 (ip), vehicle: water 103 % of control | dose: 3.0 mg/kg/injection, schedule: Q01DX009 (ip), vehicle: water 99 % of control

CC1=C2CC3CCC(C)C2(CC1)C3(C)C (stereo not drawn)
inactive: dose: 25.0 mg/kg/injection, schedule: Q04DX003 (ip), vehicle: saline with Tween-80 105 % of control | dose: 50.0 mg/kg/injection, schedule: Q04DX003 (ip), vehicle: saline with Tween-80 100 % of control | dose: 100.0 mg/kg/injection, schedule: Q04DX003 (ip), vehicle: saline with Tween-80 91 % of control

c1ccc([As+](c2ccccc2)(c2ccccc2)c2ccccc2)cc1
inactive: dose: 1.87 mg/kg/injection, schedule: Q01DX009 (ip), vehicle: Klucel (hydroxypropylcellulose) (HPC) 122 % of control | dose: 3.75 mg/kg/injection, schedule: Q01DX009 (ip), vehicle: Klucel (hydroxypropylcellulose) (HPC) 110 % of control

CN(C)CCCN1c2ccccc2CCc2ccc(Cl)cc21
inactive: [4] 101 % of control | [5] 108 % of control | [6] 115 % of control | [7] 98 % of control

Cc1ccc(S(=O)(=O)N(CCO)CC(C)O)cc1 (stereo not drawn)
inactive: [1] 105 % of control | [2] 94 % of control | [3] 100 % of control

CN(C)CCOCCOC(=O)N1c2ccccc2Sc2ccccc21
inactive: [4] 102 % of control | [5] 112 % of control | [6] 116 % of control | [7] 109 % of control

NC(=O)N/N=C1\CC2C=CCC12 (stereo not drawn)
inactive: dose: 50.0 mg/kg/injection, schedule: Q01DX009 (ip), vehicle: saline with Tween-80 105 % of control | dose: 100.0 mg/kg/injection, schedule: Q01DX009 (ip), vehicle: saline with Tween-80 97 % of control | dose: 200.0 mg/kg/injection, schedule: Q01DX009 (ip), vehicle: saline with Tween-80 101 % of control

O=[N+]([O-])c1ccc(Cl)c([N+](=O)[O-])c1
inactive: dose: 5.0 mg/kg/injection, schedule: Q01DX009 (ip), vehicle: saline with Tween-80 100 % of control and 112 % of control | dose: 10.0 mg/kg/injection, schedule: Q01DX009 (ip), vehicle: saline with Tween-80 94 % of control and 99 % of control | dose: 20.0 mg/kg/injection, schedule: Q01DX009 (ip), vehicle: saline with Tween-80 99 % of control and 102 % of control | dose: 40.0 mg/kg/injection, schedule: Q01DX009 (ip), vehicle: saline with Tween-80 98 % of control and 107 % of control | dose: 80.0 mg/kg/injection, schedule: Q01DX009 (ip), vehicle: saline with Tween-80 100 % of control and 108 % of control

CCc1ccccc1NC(=O)Nc1ccc(OC)cc1
inactive: dose: 25.0 mg/kg/injection, schedule: Q01DX009 (ip), vehicle: Klucel (hydroxypropylcellulose) (HPC) 95 % of control | [8] 87 % of control

Cc1cc(OC(=O)Nc2cccc(Cl)c2)ccc1[N+](=O)[O-]
inactive: [8] 93 % of control | dose: 50.0 mg/kg/injection, schedule: Q04DX003 (ip), vehicle: Klucel (hydroxypropylcellulose) (HPC) 100 % of control | dose: 100.0 mg/kg/injection, schedule: Q01DX009 (ip), vehicle: Klucel (hydroxypropylcellulose) (HPC) 86 % of control | [1] 100 % of control | [2] 107 % of control
